Experiment [1] has as its system TF-1. In words: cells. The format is functional, cell-based. To be noted: Homo sapiens.
Description: Inhibition of IL4-induced TF1 cell proliferation
Experiment [2] deals with TF-1. In words: cells. It is filed as functional, cell-based. The following applies: Homo sapiens. The source holds these as a separate data set.
Description: Inhibition of IL3-induced TF1 cell proliferation

For `COC[C@H](C)Nc1nc(-n2cnc3ccncc32)nc2c1cc(C(=O)N1CCN(C)CC1)n2C`, the IC50 was 1160 nM in the experiment with TF-1 [1] and 4790 nM in the experiment on TF-1 [2].

For the molecule `C[C@H](Nc1nc(-n2cnc3ccncc32)nc2c1cc(C(=O)NCCN(C)C)n2C)c1ccccc1`, the figures for the IC50 in the experiment with TF-1 [1] and in the experiment with TF-1 [2] were 460 nM and 1950 nM, respectively.

Consider `C[C@H](Nc1nc(-n2cnc3ccncc32)nc2c1cc(C(=O)NCCCN1CCOCC1)n2C)c1ccccc1`, for which the IC50 in the experiment on TF-1 [1] worked out at 910 nM; in the experiment with TF-1 [2] it was 2790 nM.

For the molecule `C[C@H](Nc1nc(-n2cnc3ccncc32)nc2c1cc(C(=O)N1CCN(C)CC1)n2C)c1ccccc1`, the half-inhibitory concentration (IC50) with TF-1 [1] stood at 80 nM; with TF-1 [2], 90 nM.

Consider `COc1ccc(Cl)c(Nc2nc(-n3cnc4ccncc43)nc3c2cc(C(=O)N2CCN(C)CC2)n3C)c1`, for which the IC50 in the experiment on TF-1 [1] was 490 nM; with TF-1 [2], 2200 nM.

As to `CONC(=O)c1cc2c(N[C@@H](C)c3ccccc3)nc(-n3cnc4ccncc43)nc2n1C`, the IC50 worked out at 450 nM in the experiment with TF-1 [1] and 740 nM with TF-1 [2].

`C[C@H](Nc1nc(-n2cnc3ccncc32)nc2c1cc(C(=O)N1CCOCC1)n2C)c1ccccc1`: the values for the IC50 in the experiment with TF-1 [1] and in the experiment on TF-1 [2] were 670 nM and 1400 nM, respectively.

By IC50 is commonly meant the concentration needed to halve the response being measured. A lower IC50 goes with higher potency.

(Values after ChEMBL document CHEMBL1148837, “Development of new pyrrolopyrimidine-based inhibitors of Janus kinase 3 (JAK3)” (Bioorg Med Chem Lett, 2007).)
